Data taken from patent US8486962B2, “Antifungal agents” (F2G Ltd., priority 2005, dated 2013).
≈ marks a conversion by molar mass, not a printed value.

Key:
Aspergillus terreus = assay: MIC, YAG medium, Aspergillus terreus; assay type: cell-based; conditions: Aspergillus terreus; YAG medium; read-out: MIC A Terreus 4
Summary of the method: (§1)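 Broth microdilution over doubling dilutions (50-0.05 mg/L). C. albicans in RPMI with 2% glucose and 0.135M MOPS (pH7.0), 1-2×10^3 cfu/ml, 24-48 hrs at 35° C; MIC = >80% growth inhibition by OD485. Aspergillus spp. in YAG (1% glucose, 1% ammonium chloride, 0.5% yeast extract), 1-2×10^4 cfu/ml, 24 hrs, >70% inhibition.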

Aspergillus flavus = assay: MIC, YAG medium, Aspergillus flavus; assay type: cell-based; conditions: Aspergillus flavus; YAG medium; read-out: MIC A Flavus 01
Summary of the method: as §1

Aspergillus niger = assay: MIC, YAG medium, Aspergillus niger; assay type: cell-based; conditions: Aspergillus niger; YAG medium; read-out: MIC A Niger 1
Summary of the method: as §1

A Terreus 49 = assay: MIC, YAG medium, A Terreus 49; assay type: cell-based, Aspergillus terreus; conditions: Aspergillus terreus; YAG medium; read-out: MIC A Terreus 49
Procedure: Measurement of Minimum Inhibitory Concentrations (MICs)
Between 1 and 5 mgs of compound were accurately weighed out into a sterile Eppendorf tube. The compound was dissolved in DMSO to give a solution containing 5 mg/ml. Tubes were stored at −20° C. until required.
On the day of testing thawed solutions were vortex mixed to ensure homogeneity. 30 μl of solution was removed and added to 570 μl of sterile water in a separate sterile Eppendorf. The thoroughly mixed solution was used to prepare a series of doubling dilutions in water, in a deep well plate. Eleven replicate plates were prepared using a Minitrak by aspirating 20 μl from each well into eleven clear polystyrene 96 well plates.
Spores of Aspergillus spp (Aspergillus fumigatus, Aspergillus terreus, Aspergillus niger and Aspergillus flavus) were harvested from cultures grown on Sabarauds agar for 5 days, and resuspended in PBS/Tween 80 to approx 1×10^7 cfu/ml Other filamentous fungi (Fusarium solani, Scedosporium spp., Trichophyton spp., Absidia corymbifera), were grown on Sabarauds agar for 2-10 days and spores/hyphae resuspended in PBS/Tween to give approx 1×10^7 cfU/ml. Candida species (Candida albicans, Candida glabrata, Candida krusei, Candida parapsilosis and Candida tropicalis) were grown on Sabarauds agar, cells were harvested from the agar using a sterile loop and resuspended in PBS/Tween 80 to approx 1×10^6 cfu/ml. Each organism suspension was diluted in RPMI medium, containing 2% glucose and 0.135M MOPS buffer (pH7.0) to 2×10^4 cfu/ml for Aspergillus spp and other filamentous fungi and 2×10^3 cfu/ml for yeast. 80 μl of an organism suspension was added to each well of the plate containing drug dilutions.
This produced MIC plates with a drug range 50-0.05 mg/L and organism inocula of 1-2×10^4 cfu/ml for Aspergillus spp and other filamentous fungi and 1-2×10^3 cfu/ml for yeasts. All plates were incubated for 24-48 hrs at 35° C. Growth was assessed by monitoring the optical density at 485 nm for each well. The MIC of a compound is the lowest drug concentration that inhibits growth of an organism by >80% compared with a drug free control. MICs are recorded as mg/L. Other growth media can be used for susceptibility testing, and the activity of the described compounds can also be assessed in a medium comprising, 1% glucose, 1% ammonium chloride and 0.5% yeast extract (YAG medium). To perform MIC tests in this medium, dilutions of compounds are prepared in microtitre plates as described above. Fungal strains to be tested are grown and harvested in an identical manner to that described above, each organism suspension is then diluted in YAG medium to 2×10^4 cfu/ml for Aspergillus spp and other filamentous fungi and 2×10^3 cfu/ml for yeast. 80 μl of an organism suspension was added to each well of the plate containing drug dilutions. This produced MIC plates with a drug range 50-0.05 mg/L and organism inocula of 1-2×10^4 cfu/ml for Aspergillus spp and other filamentous fungi and 1-2×10^3 cfu/ml for yeasts. All plates were incubated for 24 hrs at 35° C. Growth was assessed by monitoring the optical density at 485 nm for each well. The MIC of a compound is the lowest drug concentration that inhibits growth of an organism by >70% compared with a drug free control. MICs are recorded as mg/L. In cases where the MIC of an organism is […]0.05 mg/L the MIC is repeated using a concentration range of 0.5-0.0005 mg/L. MIC tests in YAG medium have more clear-cut endpoints and have slightly lower MICS than those performed in RPMI medium.
The following organisms were tested: Aspergillus fumigatus AF293 and Aspergillus fumigatus AF210, Aspergillus niger, Aspergillus terreus, Aspergillus favus, Candida albicans, Candida krusei, Candida tropicalis, Candida glabrata, Candida parapsilosis, Trichophyton rubrum, Trichophyton mentagrophytes, Scedosporium prolificans, Scedosporium apiospermum, Absidia corymbifera, Fusarium solani.

[1] = tested on: Aspergillus fumigatus AF293; assay: MIC, YAG medium, Aspergillus fumigatus AF293; assay type: cell-based; conditions: Aspergillus fumigatus, AF293; YAG medium; read-out: MIC A Fum. 293
Summary of the method: as §1

[2] = tested on: Aspergillus fumigatus AF210; assay: MIC, YAG medium, Aspergillus fumigatus AF210; assay type: cell-based; conditions: Aspergillus fumigatus, AF210; YAG medium; read-out: MIC A Fum. 210
Summary of the method: as §1

SMILES	MIC (Aspergillus terreus)	MIC (Aspergillus flavus)	MIC (Aspergillus niger)	MIC (A Terreus 49)	MIC [1]	MIC [2]
COc1ccccc1-c1cc2ccccn2c1C(=O)C(=O)Nc1ccc(F)cc1F [Example 269, N-(2,4-Difluoro-phenyl)-2-[2-(2-methoxy-phenyl)-indolizin-3-yl]-2-oxo-acetamide]	0.2 µg/mL (≈ 0.492 µM)	0.2 µg/mL (≈ 0.492 µM)	0.1 µg/mL (≈ 0.246 µM)	0.2 µg/mL (≈ 0.492 µM)	1.6 µg/mL (≈ 3.94 µM)	1.6 µg/mL (≈ 3.94 µM)
CN(C)c1ccc(NC(=O)C(=O)c2c(-c3ccccc3)cc3ccccn23)cc1-c1ncco1 [Example 292, N-(4-Dimethylamino-3-oxazol-2-yl-phenyl)-2-oxo-2-(2-phenyl-indolizin-3-yl)-acetamide]	0.03 µg/mL (≈ 0.0666 µM)	0.03 µg/mL (≈ 0.0666 µM)	0.8 µg/mL (≈ 1.78 µM)	0.015 µg/mL (≈ 0.0333 µM)	0.4 µg/mL (≈ 0.888 µM)	0.2 µg/mL (≈ 0.444 µM)
CCOC(=O)C(C)(Cc1ccccc1)NC(=O)C(=O)c1c(-c2ccccc2)cc2ccccn12 (stereo not drawn) [Example 249, 2-Methyl-2-[2-oxo-2-(2-phenyl-indolizin-3-yl)-acetylamino]-3-phenyl-propionic acid ethyl ester]	1.6 µg/mL (≈ 3.52 µM)	> 50 µg/mL	6.25 µg/mL (≈ 13.8 µM)	1.6 µg/mL (≈ 3.52 µM)	0.8 µg/mL (≈ 1.76 µM)	1.6 µg/mL (≈ 3.52 µM)
CC(C)(C#N)c1ccc(NC(=O)C(=O)c2c(-c3ccccc3)cc3ccccn23)cc1 [Example 221, N-[4-(Cyano-dimethyl-methyl)-phenyl]-2-oxo-2-(2-phenyl-indolizin-3-yl)-acetamide]	0.015 µg/mL (≈ 0.0368 µM)	0.015 µg/mL (≈ 0.0368 µM)	0.015 µg/mL (≈ 0.0368 µM)	0.008 µg/mL (≈ 0.0196 µM)	0.062 µg/mL (≈ 0.152 µM)	0.03 µg/mL (≈ 0.0736 µM)
Cc1ccc(NC(=O)C(=O)c2c(-c3ccccc3)cc3ccccn23)c(C)c1C [Example 259, 2-Oxo-2-(2-phenyl-indolizin-3-yl)-N-(2,3,4-trimethyl-phenyl)-acetamide]	0.002 µg/mL (≈ 0.00523 µM)	0.015 µg/mL (≈ 0.0392 µM)	0.03 µg/mL (≈ 0.0784 µM)	0.004 µg/mL (≈ 0.0105 µM)	0.06 µg/mL (≈ 0.157 µM)	0.06 µg/mL (≈ 0.157 µM)
COc1ccc(NC(=O)C(=O)c2c(-c3ccc(F)cc3)cc3ccccn23)c(OC)c1 [Example 149, N-(2,4-Dimethoxy-phenyl)-2-[2-(4-fluoro-phenyl)-indolizin-3-yl]-2-oxo-acetamide]	0.06 µg/mL (≈ 0.143 µM)	0.031 µg/mL (≈ 0.0741 µM)	0.031 µg/mL (≈ 0.0741 µM)	0.031 µg/mL (≈ 0.0741 µM)	0.5 µg/mL (≈ 1.19 µM)	1.6 µg/mL (≈ 3.82 µM)
COC(=O)c1cccc(NC(=O)C(=O)c2c(-c3ccccc3)cc3ccccn23)c1 [Example 141, 3-[2-Oxo-2-(2-phenyl-indolizin-3-yl)-acetylamino]-benzoic acid methyl ester]	0.031 µg/mL (≈ 0.0778 µM)	0.008 µg/mL (≈ 0.0201 µM)	0.25 µg/mL (≈ 0.627 µM)	0.015 µg/mL (≈ 0.0376 µM)	0.12 µg/mL (≈ 0.301 µM)	0.12 µg/mL (≈ 0.301 µM)
O=C(Nc1ccc(F)cc1F)C(=O)c1c(-c2cccc(F)c2)cc2ccccn12 [Example 244, N-(2,4-Difluoro-phenyl)-2-[2-(3-fluoro-phenyl)-indolizin-3-yl]-2-oxo-acetamide]	0.2 µg/mL (≈ 0.507 µM)	0.2 µg/mL (≈ 0.507 µM)	0.05 µg/mL (≈ 0.127 µM)	0.1 µg/mL (≈ 0.254 µM)	> 50 µg/mL	> 50 µg/mL
COc1ccc(NC(=O)C(=O)c2c(-c3cccc(C)c3)cc3ccccn23)cc1 [Example 233, N-(4-Methoxy-phenyl)-2-oxo-2-(2-m-tolyl-indolizin-3-yl)-acetamide]	0.008 µg/mL (≈ 0.0208 µM)	0.004 µg/mL (≈ 0.0104 µM)	0.06 µg/mL (≈ 0.156 µM)	0.004 µg/mL (≈ 0.0104 µM)	0.25 µg/mL (≈ 0.65 µM)	0.25 µg/mL (≈ 0.65 µM)
